US20040009904A1, “APL immunoreactive peptides, conjugates thereof and methods of treatment for aPL antibody-mediated pathologies” (priority 1995, published 2004)
Bridge positions count the residues as written; N and C are the ends. Peptide text beside a SMILES is read from it.

How the values were obtained:
ACA antibodies = experiment: Competitive binding peptide ACA ELISA, cardiolipin/β2-GPI-coated plates, panel of ACA antibodies (average); design: species or system human; details: peptide 1 mg/mL, average over nine antibodies
How it was run: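 Monomeric peptides at several concentrations were preincubated with aPL antibody, then added to cardiolipin-coated, fish-gelatin-blocked plates with IgG-depleted human serum as β2-GPI source, 1 h at RT. Bound IgG detected with alkaline phosphatase anti-human IgG and phenolphthalein monophosphate, A550; IC50 read at half-maximal absorbance.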

ACA-6701 [1] = experiment: Competitive fluorescence polarization assay (cFP); assay type: binding, human
Description: The above described dbFP assay provides binding constants for FITC-labeled peptides and requires on the order of 0.5 mg of purified antibody. The cFP assay provides binding constants for peptides that lack the FITC group and it consumes less antibody, on the order of 10 μg. The cFP assay is modified from that reported in PanVera Applications Guide (1994) PanVera Corporation such that it consumes 50-fold less antibody. Briefly, antibody (ACA 6701) is mixed with trace FITC labeled peptide (CB2*-F) and enough time is allowed for equilibrium to be reached. This was 1 hour for ACA 6701 and CB2*-F. Increasing concentrations of the unlabeled peptide being tested (CB2* or 3B10) are then added to the tube. After each addition, sufficient time, approximately 15 minutes, is allowed for equilibrium to be reached and the mP value was read. […] This Δ(mP) value should be 20 or more mP units to insure reliable results.
As unlabeled (no FITC) peptide (I) is added to inhibit F from binding to R, Y decreases from its maximum value of PH′ to a plateau of PL which should agree with that in Equation 1. These titrations are shown in FIGS. 26 and 27 for displacement of CB2*-F from ACA-6701 by CB2* and 3B10, respectively. The equation describing this titration was derived and is: [formula]
where PL is the same as in Equation 1. […]

ACA-6638 = experiment: Competitive binding peptide ACA ELISA, cardiolipin/β2-GPI-coated plates; design: species or system human; details: peptide 1 mg/mL, affinity purified antibody
How it was run: (§1)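 Wells coated with cardiolipin plus IgG-depleted human serum as β2-GPI source; monomeric peptides at several concentrations preincubated with aPL antibody, then added 1 h RT. Bound IgG detected with alkaline phosphatase anti-human IgG, A550; IC50 taken as peptide amount giving half-maximal absorbance.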

ACA-7004 = experiment: as above; design: species or system human; details: peptide 1 mg/mL, affinity purified antibody
How it was run: as §1

ACA-7005 = experiment: as above; design: species or system human; details: peptide 1 mg/mL, affinity purified antibody
How it was run: as §1

ACA-6641 = experiment: as above; design: species or system human; details: peptide 1 mg/mL, affinity purified antibody
How it was run: as §1

ACA-6903 = experiment: as above; design: species or system human; details: peptide 1 mg/mL, affinity purified antibody
How it was run: as §1

ACA-6644 = experiment: as above; design: species or system human; details: peptide 1 mg/mL, affinity purified antibody
How it was run: as §1

ACA-6701 [2] = experiment: as above; design: species or system human; details: peptide 1 mg/mL, affinity purified antibody
How it was run: as §1

ACA-6626 = experiment: as above; design: species or system human; details: peptide 1 mg/mL, affinity purified antibody
How it was run: as §1

`CC(C)C[C@@H]1NC(=O)[C@H](CC(C)C)NC(=O)[C@H](CC(C)C)NC(=O)[C@@H](NC(=O)[C@@H]2CCCN2C(=O)CNC(=O)[C@H](C)N)CSSC[C@@H](C(=O)N2CCC[C@H]2C(=O)NCC(=O)O)NC(=O)[C@H](CCCNC(=N)N)NC(=O)[C@H](CC(=O)O)NC(=O)[C@@H]2CCCN2C(=O)[C@H](C)NC1=O` [3B10, AGPCLLLAPDRCPG] (H-AGPCLLLAPDRCPG-OH; disulfide 4-12) was tested, and the “Percent Inhibition of AffACA by Peptide Monomers, Ave.” value (ACA antibodies) was 65%, the Ki (ACA-6701 [1]; cFP, displacement of CB2*-F from ACA-6701) was 0.313 µM and the “binding to ACA-6701 less than binding of CB2*” value (ACA-6701 [1]; versus CB2*) was 9 fold. The “Percent Inhibition of AffACA by Peptide Monomers, 6638” value (ACA-6638) was 87%, the “Percent Inhibition of AffACA by Peptide Monomers, 7004” value (ACA-7004) was 87% and the “Percent Inhibition of AffACA by Peptide Monomers, 7005” value (ACA-7005) was 47%. For the same molecule, the “Percent Inhibition of AffACA by Peptide Monomers, 6641” value (ACA-6641) was 52%, the “Percent Inhibition of AffACA by Peptide Monomers, 6903” value (ACA-6903) was 69% and the “Percent Inhibition of AffACA by Peptide Monomers, 6644” value (ACA-6644) was 55%. For the same molecule, the “Percent Inhibition of AffACA by Peptide Monomers, 6701” value (ACA-6701 [2]) was 51% and the “Percent Inhibition of AffACA by Peptide Monomers, 6626” value (ACA-6626) was 76%.
